Measurements from BigSolDB 2.1.

OCC1(O)OC[C@@H](O)[C@@H](O)[C@H]1O (some centres undefined)
solubility (mole fraction)
Details | 283.15 K | 288.15 K | 293.15 K | 298.15 K | 303.15 K | 308.15 K | 313.15 K | 318.15 K | 323.15 K
in 2-butanone | 0.000516 | 0.000587 | 0.000946 | 0.00144 | 0.00198 | 0.00264 | 0.0033 | 0.00464 | 0.00552
in acetone | 0.000606 | 0.000752 | 0.00104 | 0.00158 | 0.00219 | 0.00299 | 0.00376 | 0.0049 | –
in acetonitrile | 0.000226 | 0.000283 | 0.000367 | 0.00047 | 0.000627 | 0.000861 | 0.00109 | 0.00139 | 0.00176
in ethanol | 0.00369 | 0.00446 | 0.00588 | 0.00746 | 0.00899 | 0.0116 | 0.0147 | 0.018 | 0.0222
in ethyl acetate | 0.00077 | 0.000993 | 0.00128 | 0.00173 | 0.00217 | 0.00257 | 0.00327 | 0.00379 | 0.00449
in ethyl formate | 0.000243 | 0.000356 | 0.000493 | 0.000697 | 0.00109 | 0.00151 | 0.00193 | 0.00275 | 0.00346
in isopropanol | 0.00147 | 0.00193 | 0.00254 | 0.00368 | 0.00507 | 0.00673 | 0.00893 | 0.0112 | 0.0143
in methanol | 0.0162 | 0.0178 | 0.0212 | 0.0273 | 0.0356 | 0.0512 | 0.0705 | 0.0895 | 0.116
in methyl acetate | 0.000227 | 0.000298 | 0.000389 | 0.000619 | 0.000851 | 0.00105 | 0.00139 | 0.00187 | 0.00231
in n-butanol | 0.00111 | 0.00125 | 0.0018 | 0.0024 | 0.00329 | 0.00456 | 0.00579 | 0.00747 | 0.00952
in n-butyl acetate | 0.000243 | 0.000359 | 0.000443 | 0.000593 | 0.000796 | 0.001 | 0.00131 | 0.00165 | 0.002
in n-hexanol | 0.000659 | 0.000835 | 0.000961 | 0.00143 | 0.00216 | 0.00301 | 0.004 | 0.00509 | 0.00652
in n-pentanol | 0.00133 | 0.00134 | 0.0017 | 0.00202 | 0.00269 | 0.00356 | 0.00448 | 0.00561 | 0.00721
in n-propanol | 0.0015 | 0.00191 | 0.00234 | 0.00335 | 0.00446 | 0.00567 | 0.00751 | 0.00956 | 0.0121
in sec-butanol | 0.001 | 0.00178 | 0.00238 | 0.00324 | 0.0045 | 0.00617 | 0.0079 | 0.0105 | 0.0135
